Literature values, collected in patent US20250099385A1, “Extended Release Boswellic Acid and Manufacturing Thereof” (Lonza Greenwood LLC, priority 2022, published 2025).
“Also recorded” adds a separate entry of the source.

Tests used:
[1] = not given; remark: listed apart in the source
5-lipoxygenase = target: T1, 5-lipoxygenase (Homo sapiens, UniProt P09917)
T1 sequence (P09917 1-674): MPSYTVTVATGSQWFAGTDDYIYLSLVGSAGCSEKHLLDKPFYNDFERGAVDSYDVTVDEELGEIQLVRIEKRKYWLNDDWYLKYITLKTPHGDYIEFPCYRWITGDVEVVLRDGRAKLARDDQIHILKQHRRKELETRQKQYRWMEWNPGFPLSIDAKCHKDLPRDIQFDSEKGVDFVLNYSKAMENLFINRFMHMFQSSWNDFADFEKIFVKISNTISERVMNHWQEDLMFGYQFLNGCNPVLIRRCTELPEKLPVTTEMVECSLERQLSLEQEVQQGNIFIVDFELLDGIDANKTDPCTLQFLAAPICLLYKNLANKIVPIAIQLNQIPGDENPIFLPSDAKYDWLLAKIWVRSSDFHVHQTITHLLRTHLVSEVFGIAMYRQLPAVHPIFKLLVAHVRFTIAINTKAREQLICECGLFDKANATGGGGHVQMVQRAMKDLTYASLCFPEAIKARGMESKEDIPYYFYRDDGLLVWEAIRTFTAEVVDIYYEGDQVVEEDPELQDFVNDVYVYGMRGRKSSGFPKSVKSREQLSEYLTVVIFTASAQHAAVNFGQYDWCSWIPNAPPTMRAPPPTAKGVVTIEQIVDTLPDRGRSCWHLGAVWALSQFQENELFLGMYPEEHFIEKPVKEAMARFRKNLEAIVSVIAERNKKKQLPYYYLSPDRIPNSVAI

Question: For “3-O-acetyl-11-keto-.beta.-boswellic acid [AKBA]”, which “time at which AKBA levels in the blood peak” value (after oral consumption) is on record?
Answer: ~3 h

Question: What about the “AKBA levels in the blood beyond 10 hours” value (beyond 10 hours from oral consumption) of the same substance?
Answer: nearly zero concentration; also recorded: almost zero concentrations

Question: What about the bioavailability (in vivo) of the same substance?
Answer: poorly bioavailable

Question: And the water solubility [1]?
Answer: highly water-insoluble

Question: And the “5-lipoxygenase inhibition, rank among the boswellic acids” value (5-lipoxygenase)?
Answer: most potent inhibitor
